Legend:
[1] = molecular target: T1, human recombinant adrenergic α2A receptor (Homo sapiens, UniProt P08913); assay: Adrenergic α2A radioligand binding assay ([3H]MK-912); conditions: 1 nM [3H]MK-912, insect Sf9 cells; for inhibition at 0.1 µM: compound at 0.1 μM, read-out: Percent Inhibition of ligand binding, Adrenergic (0.1 μM) a2A; for inhibition at 1 µM: compound at 1 μM, read-out: Percent Inhibition of ligand binding, Adrenergic (1 μM) a2A
T1 construct: expressed in transfected cells; host or cells: insect Sf9 cells
T1 sequence (P08913 1-465): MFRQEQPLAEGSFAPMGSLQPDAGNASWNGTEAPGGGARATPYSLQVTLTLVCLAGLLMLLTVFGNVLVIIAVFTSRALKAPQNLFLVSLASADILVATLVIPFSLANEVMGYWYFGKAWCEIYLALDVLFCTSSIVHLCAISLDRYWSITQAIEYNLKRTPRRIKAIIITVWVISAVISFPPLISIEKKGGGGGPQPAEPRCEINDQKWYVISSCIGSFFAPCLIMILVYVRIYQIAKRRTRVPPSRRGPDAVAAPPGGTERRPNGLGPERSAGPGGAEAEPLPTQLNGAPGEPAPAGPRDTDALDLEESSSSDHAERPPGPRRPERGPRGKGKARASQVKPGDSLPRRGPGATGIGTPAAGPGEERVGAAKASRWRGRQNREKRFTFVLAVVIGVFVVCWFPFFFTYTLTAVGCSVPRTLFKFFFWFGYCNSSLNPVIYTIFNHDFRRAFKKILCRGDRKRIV
Experimental: To evaluate in radioligand binding assays the activity of compounds of the invention, human recombinant adrenergic α2A receptor expressed in insect Sf9 cells (Uhlen S et al. J. Pharmacol. Exp. Ther. 271:1558, 1994) in a modified Tris-HCl buffer (50 mM Tris-HCl, pH 7.4, 12.5 mM MgCl2, 2 mM EDTA) was used. Compounds of invention were incubated with 1 nM [^3H]MK-912 for 60 min at 25° C. MK912 is (2S-trans)-1,3,4,5′,6,6′,7,12b-octahydro-1′,3′-dimethyl-spiro[2H-benzofuro[2,3-a]quinolizine-2,4′(1′H)-pyrimidin]-2′(3′H)-one hydrochloride Non-specific binding was estimated in the presence of 10 μM WB-4101 (2-(2,6-dimethoxyphenoxyethyl)aminomethyl-1,4-benzodioxane hydrochloride). Receptor proteins were filtered and washed, the filters were then counted to determine [^3H]MK-912 specifically bound.

[2] = molecular target: T2, human recombinant adrenergic α2C receptor (Homo sapiens, UniProt P18825); assay: Adrenergic α2C radioligand binding assay ([3H]MK-912); conditions: compound at 0.1 μM; 1 nM [3H]MK-912; insect Sf9 cells; read-out: Percent Inhibition of ligand binding, Adrenergic (0.1 μM) a2C
T2 construct: expressed in transfected cells; host or cells: insect Sf9 cells
T2 sequence (P18825 1-462): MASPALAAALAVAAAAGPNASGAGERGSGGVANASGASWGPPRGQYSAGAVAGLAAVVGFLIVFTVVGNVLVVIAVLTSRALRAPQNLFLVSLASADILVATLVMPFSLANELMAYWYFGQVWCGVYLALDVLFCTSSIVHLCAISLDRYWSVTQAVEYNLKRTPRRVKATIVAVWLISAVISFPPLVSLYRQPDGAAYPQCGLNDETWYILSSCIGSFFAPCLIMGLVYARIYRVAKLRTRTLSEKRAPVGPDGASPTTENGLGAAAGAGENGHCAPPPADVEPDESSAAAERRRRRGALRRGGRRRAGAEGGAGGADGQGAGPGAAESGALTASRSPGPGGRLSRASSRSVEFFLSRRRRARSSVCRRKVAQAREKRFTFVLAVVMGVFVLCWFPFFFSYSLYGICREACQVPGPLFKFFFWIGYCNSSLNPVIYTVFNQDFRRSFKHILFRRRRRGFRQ
Experimental: To evaluate in radioligand binding assays the activity of compounds of the invention, human recombinant adrenergic α2C receptor expressed in insect Sf9 cells (Uhlen S et al. J. Pharmacol. Exp. Ther. 271:1558, 1994) in a modified Tris-HCl buffer (50 mM Tris-HCl, pH 7.4, 12.5 mM MgCl2, 2 mM EDTA) is used. Compounds of the invention are incubated with 1 nM [^3H]MK-912 for 60 min at 25° C. Non-specific binding is estimated in the presence of 10 μM WB-4101. Receptor proteins are filtered and washed, the filters are then counted to determine [^3H]MK-912 specifically bound. Compounds are screened at 1 μM or lower, using 1% DMSO as vehicle. Compounds of the invention are tested in this biochemical assay and percent inhibition of specific binding is determined.

[3] = molecular target: human recombinant serotonin (5-Hydroxytryptamine) 5-HT7 receptor (Homo sapiens, UniProt P34969); assay: Serotonin 5-HT7 radioligand binding assay ([3H]LSD); conditions: 5.5 nM [3H]LSD, CHO cells; for inhibition at 0.1 µM: compound at 0.1 μM, read-out: Percent Inhibition of ligand binding, Serotonin (0.1 μM) 5-HT7; for inhibition at 1 µM: compound at 1 μM, read-out: Percent Inhibition of ligand binding, Serotonin (1 μM) 5-HT7
Experimental: Compounds of invention were incubated with 5.5 nM [^3H] Lysergic acid diethylamide (LSD) for 2 h at 25° C. […] Receptor proteins were filtered and washed, the filters were then counted to determine [^3H]LSD specifically bound. Compounds were screened at 1 μM or lower, using 1% DMSO as vehicle. Biochemical assay results are presented as the percent inhibition of specific binding in Table 4.

[4] = molecular target: T3, human recombinant serotonin (5-Hydroxytryptamine) 5-HT2C receptor (Homo sapiens, UniProt P28335); assay: Serotonin 5-HT2C radioligand binding assay ([3H]Mesulergine); conditions: 1 nM [3H]Mesulergine, CHO-K1 cells; for inhibition at 0.1 µM: compound at 0.1 μM, read-out: Percent Inhibition of ligand binding, Serotonin (0.1 μM) 5-HT2C; for inhibition at 1 µM: compound at 1 μM, read-out: Percent Inhibition of ligand binding, Serotonin (1 μM) 5-HT2C
T3 construct: expressed in transfected cells; host or cells: Chinese hamster ovary (CHO-K1) cells
T3 sequence (P28335 33-458): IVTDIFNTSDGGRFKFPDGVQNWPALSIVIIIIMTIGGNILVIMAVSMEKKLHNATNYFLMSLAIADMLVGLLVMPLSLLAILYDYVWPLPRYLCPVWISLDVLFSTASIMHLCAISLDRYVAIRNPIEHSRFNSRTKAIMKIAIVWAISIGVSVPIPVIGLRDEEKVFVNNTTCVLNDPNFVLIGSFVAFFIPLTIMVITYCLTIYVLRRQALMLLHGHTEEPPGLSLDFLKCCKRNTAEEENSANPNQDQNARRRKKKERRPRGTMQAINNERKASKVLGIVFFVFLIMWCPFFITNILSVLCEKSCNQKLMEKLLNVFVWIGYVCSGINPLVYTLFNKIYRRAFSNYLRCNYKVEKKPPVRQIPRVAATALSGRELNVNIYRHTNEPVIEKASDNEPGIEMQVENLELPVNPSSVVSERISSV
Experimental: Compounds of the invention were incubated with 1 nM [^3H]Mesulergine for 60 min at 25° C. Non-specific binding was estimated in the presence of 1 μM Mianserin. Receptor proteins were filtered and washed, the filters were then counted to determine [^3H]Mesulergine specifically bound. Compounds were screened at 1 μM or lower, using 1% DMSO as vehicle. Biochemical assay results are presented as the percent inhibition of specific binding in Table 4.

Chain of human recombinant serotonin (5-Hydroxytryptamine) 5-HT7 receptor (P34969 whole entry): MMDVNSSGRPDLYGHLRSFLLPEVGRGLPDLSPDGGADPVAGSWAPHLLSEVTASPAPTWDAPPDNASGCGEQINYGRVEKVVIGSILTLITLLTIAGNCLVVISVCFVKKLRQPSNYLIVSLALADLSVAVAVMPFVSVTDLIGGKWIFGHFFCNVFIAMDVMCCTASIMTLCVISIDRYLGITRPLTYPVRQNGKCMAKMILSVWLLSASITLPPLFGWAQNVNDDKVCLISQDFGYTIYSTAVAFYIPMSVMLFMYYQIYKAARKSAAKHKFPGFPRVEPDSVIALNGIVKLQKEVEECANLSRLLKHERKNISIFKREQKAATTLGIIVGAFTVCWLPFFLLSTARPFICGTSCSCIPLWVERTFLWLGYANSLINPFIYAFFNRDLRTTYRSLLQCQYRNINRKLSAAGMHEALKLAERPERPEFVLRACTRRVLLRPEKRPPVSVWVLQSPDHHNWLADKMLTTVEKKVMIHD

Compound | inhibition at 0.1 µM [1] [%] | inhibition at 0.1 µM [2] [%] | inhibition at 0.1 µM [3] [%] | inhibition at 0.1 µM [4] [%] | inhibition at 1 µM [1] [%] | inhibition at 1 µM [4] [%] | inhibition at 1 µM [3] [%]
CN1CCc2c(c3cc(Cl)c(Cl)cc3n2CC(C)(O)c2ccncc2)C1 (stereo not drawn) [Compound 1-17, 1-(7,8-dichloro-2-methyl-3,4-dihydro-1H-pyrido[4,3-b]indol-5(2H)-yl)-2-(pyridin-4-yl)propan-2-ol] | 64 | 39 | – | – | – | – | –
CN1CCc2c(c3cc(Cl)ccc3n2CC(O)c2ccncc2)C1 (stereo not drawn) [Compound 1-11, 2-(8-chloro-2-methyl-3,4-dihydro-1H-pyrido[4,3-b]indol-5(2H)-yl)-1-(pyridin-4-yl)ethanol] | 41 | 26 | – | – | – | – | –
Cc1ccc2c(c1)c1c(n2CC(C)(C)c2ccncc2)CCN(C)C1 [Compound 1-49, 2,8-dimethyl-5-(2-methyl-2-(pyridin-4-yl)propyl)-2,3,4,5-tetrahydro-1H-pyrido[4,3-b]indole] | – | 43 | 95 | 96 | – | – | –
Cc1ccc2c(c1)c1c(n2CC(=O)c2ccccc2)CCN(C)C1 [Compound 1-35, 2-(2,8-dimethyl-3,4-dihydro-1H-pyrido[4,3-b]indol-5(2H)-yl)-1-phenylethanone] | – | – | – | – | 19 | 75 | –
Cc1ccc2c(c1)c1c(n2CC(O)c2ccncc2)CCN(C)C1 (stereo not drawn) [Compound 1-8, 2-(2,8-dimethyl-3,4-dihydro-1H-pyrido[4,3-b]indol-5(2H)-yl)-1-(pyridin-4-yl)ethanol] | 37 | 5 | – | – | – | – | –
CN1CCc2c(c3cc(Cl)ccc3n2CC(=O)c2ccc(Cl)cc2)C1 [Compound 1-38, 2-(8-chloro-2-methyl-3,4-dihydro-1H-pyrido[4,3-b]indol-5(2H)-yl)-1-(4-chlorophenyl)ethanone] | – | – | – | – | 90 | 101 | 81
CN1CCc2c(c3cc(Cl)ccc3n2CC(=O)c2ccccc2)C1 [Compound 1-36, 2-(8-chloro-2-methyl-3,4-dihydro-1H-pyrido[4,3-b]indol-5(2H)-yl)-1-phenylethanone] | – | – | – | – | 43 | 94 | –
Cc1ccc2c(c1)c1c(n2CC(C)c2ccncc2)CCN(C)C1 (stereo not drawn) [Compound 1-46, 2,8-dimethyl-5-(2-(pyridin-4-yl)propyl)-2,3,4,5-tetrahydro-1H-pyrido[4,3-b]indole] | – | 22 | 93 | 83 | – | – | –
CN1CCc2c(c3cc(Cl)ccc3n2CC(=O)c2ccc(F)cc2)C1 [Compound 1-37, 2-(8-chloro-2-methyl-3,4-dihydro-1H-pyrido[4,3-b]indol-5(2H)-yl)-1-(4-fluorophenyl)ethanone] | – | – | – | – | 87 | 97 | 73
CCCC[C@@](O)(Cn1c2c(c3cc(Cl)ccc31)CN(C)CC2)c1ccc(F)cc1 [Compound 1-67, (S)-1-(8-chloro-2-methyl-3,4-dihydro-1H-pyrido[4,3-b]indol-5(2H)-yl)-2-(4-fluorophenyl)hexan-2-ol] | – | 13 | -8 | 51 | – | – | –
Cc1ccc2c(c1)c1c(n2CCc2ccc(CCCN)nc2)CCN(C)C1 [Compound 1-40, 3-(5-(2-(2,8-dimethyl-3,4-dihydro-1H-pyrido[4,3-b]indol-5(2H)-yl)ethyl)pyridin-2-yl)propan-1-amine] | – | – | – | – | 31 | 91 | –
Cc1ccc2c(c1)c1c(n2CCc2ccc(C(F)(F)F)nc2)CCNC1 [Compound 1-41, 8-methyl-5-(2-(6-(trifluoromethyl)pyridin-3-yl)ethyl)-2,3,4,5-tetrahydro-1H-pyrido[4,3-b]indole] | – | – | – | – | 58 | 41 | 59
COc1ccc([C@](C)(O)Cn2c3c(c4cc(C)ccc42)CN(C)CC3)cc1 [Compound 1-20, (S)-1-(2,8-Dimethyl-3,4-dihydro-1H-pyrido[4,3-b]indol-5(2H)-yl)-2-(4-methoxyphenyl)propan-2-ol] | 57 | 28 | – | – | – | – | –
Cc1ccc2c(c1)c1c(n2CCc2ccc(C)nc2)CCN(CCC#N)C1 [Compound 1-34, 3-(8-methyl-5-(2-(6-methylpyridin-3-yl)ethyl)-3,4-dihydro-1H-pyrido[4,3-b]indol-2(5H)-yl)propanenitrile] | – | – | – | – | 3 | 16 | –
Cc1ccc2c(c1)c1c(n2CC(C)(O)c2ccc(O)cc2)CCN(C)C1 (stereo not drawn) [Compound 1-15, 4-(1-(2,8-dimethyl-3,4-dihydro-1H-pyrido[4,3-b]indol-5(2H)-yl)-2-hydroxypropan-2-yl)phenol] | 32 | 5 | – | – | – | – | –
Cc1ccc2c(c1)c1c(n2CCc2ccc(C)nc2)CCN(CCCO)C1 [Compound 1-42, 3-(8-methyl-5-(2-(6-methylpyridin-3-yl)ethyl)-3,4-dihydro-1H-pyrido[4,3-b]indole-2(5H)-yl)propan-1-ol] | – | – | – | – | 35 | 90 | 63
Cc1ccc2c(c1)c1c(n2CC(=O)c2ccc(F)cc2)CCN(C)C1 [Compound 1-39, 2-(2,8-dimethyl-3,4-dihydro-1H-pyrido[4,3-b]indol-5(2H)-yl)-1-(4-fluorophenyl)ethanone] | – | – | – | – | 88 | 104 | 95
